Results: US11759462B2, “Spirocyclic compounds as tryptophan hydroxylase inhibitors” (priority 2013, dated 2023)

Tested on: jejunal mucosal 5-HT in mice (C57 BL6)
Experiment: Intestinal 5-HT depletion assay (Example B, single 150 mg/kg oral dose)
Format: in vivo, mouse
Conditions: one day after oral administration of a single 150 mg/kg dose, P-value class (ANOVA)
Protocol: The efficacy of the TPH1 inhibitors of the invention was assessed for the ability to decrease intestinal serotonin concentration in mice. Mice (C57 BL6) were administered a single 150 mg/kg dose of test article by oral gavage. Each animal was euthanized by exsanguination under isoflurane anesthesia. Jejunal intestinal mucosa was isolated and homogenized in 300 μL of a buffer containing 0.3M trichloroacetic acid, 0.1M sodium acetate, 10 mM EDTA, 20 mM sodium bisulfate and 50 mM ascorbic acid. Following centrifugation the 5-HT levels in the supernatants were measured by HPLC. The remaining mucosal pellet was solubilized overnight at 37° C. in a 0.1% sodium dodecyl sulfate buffer in 0.1N NaOH followed by determination of protein concentrations using a BCA protein assay (Pierce, Rockford, Ill. 5-HT levels were normalized to protein and data were expressed as mean percent reduction of mucosal 5-HT levels relative to vehicle control SEM (percent 5-HT reduction). All animal studies were carried out with protocols approved by the Institutional Animal Care and Use Committee.
P-values, indicating statistical significance of the data (ANOVA) are provided in the table: * refers to P<0.05, ** refers to P<0.01, *** refers to P<0.005, and refers to P<0.0005.

SMILES	Efficacy (statistical significance of reduction of mucosal 5-HT concentrations relative to vehicle)
CCOC(=O)c1ccc([C@@H](Oc2cc(N3CCC4(CC3)CN[C@H](C(=O)OCC)C4)nc(N)n2)C(F)(F)F)c(-n2ccc(C)n2)c1 [Example 63bi, (S)-ethyl 8-(2-amino-6-((R)-1-(4-(ethoxycarbonyl)-2-(3-methyl-1H-pyrazol-1-yl)phenyl)-2,2,2-trifluoroethoxy)pyrimidin-4-yl)-2,8-diazaspiro[4.5]decane-3-carboxylate]	** (** refers to P<0.01)
CCCCc1ccc(-n2ccc(C)n2)c([C@@H](Oc2cc(N3CCC4(CC3)CN[C@H](C(=O)OCC)C4)nc(N)n2)C(F)(F)F)c1 [Example 63bq, (S)-ethyl 8-(2-amino-6-((R)-1-(5-butyl-2-(3-methyl-1H-pyrazol-1-yl)phenyl)-2,2,2-trifluoroethoxy)pyrimidin-4-yl)-2,8-diazaspiro[4.5]decane-3-carboxylate]	**** (and refers to P<0.0005)
CCOC(=O)[C@@H]1CC2(CCN(c3cc(O[C@H](c4ccc(-c5ccc6c(c5)CCNC6=O)cc4)C(F)(F)F)nc(N)n3)CC2)CN1 [Example 63bx, (S)-ethyl 8-(2-amino-6-((R)-2,2,2-trifluoro-1-(4-(1-oxo-1,2,3,4-tetrahydroisoquinolin-6-yl)phenyl)ethoxy)pyrimidin-4-yl)-2,8-diazaspiro[4.5]decane-3-carboxylate]	*** (*** refers to P<0.005)
CCOC(=O)[C@@H]1CC2(CCN(c3cc(O[C@H](c4ccc(-c5ccc6cnccc6c5)cc4)C(F)(F)F)nc(N)n3)CC2)CN1 [Example 63by, (S)-ethyl 8-(2-amino-6-((R)-2,2,2-trifluoro-1-(4-(isoquinolin-6-yl)phenyl)ethoxy)pyrimidin-4-yl)-2,8-diazaspiro[4.5]decane-3-carboxylate]	*** (*** refers to P<0.005)
CCOC(=O)CCc1ccc([C@@H](Oc2cc(N3CCC4(CC3)CN[C@H](C(=O)OCC)C4)nc(N)n2)C(F)(F)F)c(-n2ccc(C)n2)c1 [Example 63bz, (S)-ethyl 8-(2-amino-6-((R)-1-(4-(3-ethoxy-3-oxopropyl)-2-(3-methyl-1H-pyrazol-1-yl)phenyl)-2,2,2-trifluoroethoxy)pyrimidin-4-yl)-2,8-diazaspiro[4.5]decane-3-carboxylate]	** (** refers to P<0.01)
CCOC(=O)[C@@H]1CC2(CCN(c3cc(O[C@H](c4ccc(-c5ccc(CNC(C)=O)cc5)cc4-n4ccc(C)n4)C(F)(F)F)nc(N)n3)CC2)CN1 [Example 63cp, (S)-ethyl 8-(6-((R)-1-(4′-(acetamidomethyl)-3-(3-methyl-1H-pyrazol-1-yl)-[1,1′-biphenyl]-4-yl)-2,2,2-trifluoroethoxy)-2-aminopyrimidin-4-yl)-2,8-diazaspiro[4.5]decane-3-carboxylate]	*** (*** refers to P<0.005)
CCOC(=O)c1ccccc1-c1ccc(-n2ccc(C)n2)c([C@@H](Oc2cc(N3CCC4(CC3)CN[C@H](C(=O)OCC)C4)nc(N)n2)C(F)(F)F)c1 [Example 63da, (S)-ethyl 8-(2-amino-6-((R)-1-(2′-(ethoxycarbonyl)-4-(3-methyl-1H-pyrazol-1-yl)-[1,1′-biphenyl]-3-yl)-2,2,2-trifluoroethoxy)pyrimidin-4-yl)-2,8-diazaspiro[4.5]decane-3-carboxylate]	*** (*** refers to P<0.005)
CCOC(=O)CCc1ccc(-c2ccc(-n3ccc(C)n3)c([C@@H](Oc3cc(N4CCC5(CC4)CN[C@H](C(=O)OCC)C5)nc(N)n3)C(F)(F)F)c2)cc1 [Example 63di, (S)-ethyl 8-(2-amino-6-((R)-1-(4′-(3-ethoxy-3-oxopropyl)-4-(3-methyl-1H-pyrazol-1-yl)-[1,1′-biphenyl]-3-yl)-2,2,2-trifluoroethoxy)pyrimidin-4-yl)-2,8-diazaspiro[4.5]decane-3-carboxylate]	*** (*** refers to P<0.005)
